Series [1] deals with JAK2 (Homo sapiens (Human), UniProt O60674). In words: JAK kinase assay (HTRF), JAK2. Particulars: catalytic domain, His-tag, ATP at Km (4 μM). Format: biochemical. How it is done:
(§1) Human baculovirus-expressed JAK1, 2, 3 and TYK2 were purchased from Carna Biosciences, Inc. All four purified enzymes contain only the catalytic domain. JAK1 (aa 850-1154) and TYK2 (aa 871-1187) are expressed with an N-terminally fused GST-tag, and JAK2 and JAK3 with an N-terminally fused His-tag.
(§2) Inhibition of phosphorylation of a synthetic peptide was measured in an HTRF-based assay using the TK substrate-Biotin from the Cisbio HTRFKinEASE TK kit. First, 2 μl of TK solution (TK substrate-biotin in kinase buffer [1× enzymatic buffer from HTRFKinEASE TK kit, 1 mM DTT]) is added to a plate containing 1 μl prediluted compound (final assay concentration DMSO: 0.75%). Then, 5 μl kinase-ATP mix (prepared in kinase buffer) is added to the wells and the plates are incubated at RT for 20-30 min. For all four kinases a concentration of ATP that corresponded to the Km for ATP was used. The final concentrations of buffers, substrate, kinase and ATP were: JAK1: 50 mM Hepes buffer pH 7.0, 0.01% BSA, 10 mM MgCl2, 1 mM DTT, 7 μM ATP, 50 nM SEB, 1 μM TK Substrate-Biotin and 5 ng JAK1; JAK2: 50 mM Hepes buffer pH 7.0, 0.01% BSA, 5 mM MgCl2, 1 mM DTT, 4 μM ATP, 1 μM TK Substrate-Biotin and 0.1 ng JAK2; JAK3: 50 mM Hepes buffer pH 7.0, 0.01% BSA, 5 mM MgCl2, 1 mM DTT, 2 μM ATP, 1 μM TK Substrate-Biotin and 0.3 ng JAK3; TYK2: 50 mM Hepes buffer pH 7.0, 0.01% BSA, 5 mM MgCl2, 1 mM DTT, 13 μM ATP, 50 nM SEB, 1 μM TK Substrate-Biotin and 0.8 ng TYK2. Thereafter, the kinase reaction is stopped by adding 4 μl detection mix (final concentrations: 50 mM Hepes buffer pH 7.0, 0.01% BSA, 0.8 M KF, 20 mM EDTA, 42 nM Streptavidin-XL665 and 1:400 STK Ab Cryptate) and the plates are incubated overnight in the dark. The HTRF signal is read using an Envision plate reader.
(In TR-FRET formats the signal depends on donor and acceptor labels being close together.)

The target of series [2] is TYK2 (Homo sapiens (Human), UniProt P29597). In words: JAK kinase assay (HTRF), TYK2. Format: biochemical. The note with it: catalytic domain (aa 871-1187), GST-tag, ATP at Km (13 μM). How it is done:
as §1, §2

The target of series [3] is JAK1 (Homo sapiens (Human), UniProt P23458). In words: JAK kinase assay (HTRF), JAK1. The series is classed as biochemical. Particulars: catalytic domain (aa 850-1154), GST-tag, ATP at Km (7 μM). As to the method:
as §1, §2

In series [4] the target is JAK3 (Homo sapiens (Human), UniProt P52333). Description: JAK kinase assay (HTRF), JAK3. The series is classed as biochemical. Particulars: catalytic domain, His-tag, ATP at Km (2 μM). How it is done:
as §1, §2

Series [5] is described as follows: in vitro metabolic stability in human liver microsomes. Format: in vitro ADME. The note with it: compound 0.5 μM, human liver microsomes 0.5 mg/mL, NADPH, 40 min, 37° C.; for CLint scaled at 0.5 μM: human, liver microsomes, read-out: Human liver microsome Clapp (apparent intrinsic clearance). How it is done:
To assess the in vitro metabolic stability, the compounds (0.5 μM) were incubated in duplicates with human liver microsomes (0.5 mg/mL) in phosphate buffer and NADPH, in 96-well plates for 40 min (37° C.), using a liquid handling robot (Hamilton Microlab Star). Sample aliquots were taken at 0, 5, 10, 20 and 40 min, and dispensed into cold acetonitrile, in order to stop the reactions. The plates were centrifuged for 30 minutes before the samples were analyzed using liquid chromatography coupled to a time-of-flight mass spectrometer (AB Sciex API5600). The compound depletion over time was used to estimate the elimination rate constant, from which the apparent intrinsic clearance, Clapp, was calculated and the values are listed in table 2.

These results are taken from US10851116B2, “Bicyclic amines as novel JAK kinase inhibitors” (LEO Pharma A/S, priority 2017, dated 2020).

JAK2, sequence (O60674 849-1124): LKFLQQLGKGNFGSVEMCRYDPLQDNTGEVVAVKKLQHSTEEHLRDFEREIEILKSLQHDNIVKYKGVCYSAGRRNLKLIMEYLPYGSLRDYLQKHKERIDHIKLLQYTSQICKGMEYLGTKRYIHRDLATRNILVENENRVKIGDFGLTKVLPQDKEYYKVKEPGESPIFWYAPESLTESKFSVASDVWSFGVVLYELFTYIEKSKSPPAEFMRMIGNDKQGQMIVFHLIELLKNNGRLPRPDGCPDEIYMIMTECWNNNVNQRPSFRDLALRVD
JAK3, sequence (P52333 822-1111): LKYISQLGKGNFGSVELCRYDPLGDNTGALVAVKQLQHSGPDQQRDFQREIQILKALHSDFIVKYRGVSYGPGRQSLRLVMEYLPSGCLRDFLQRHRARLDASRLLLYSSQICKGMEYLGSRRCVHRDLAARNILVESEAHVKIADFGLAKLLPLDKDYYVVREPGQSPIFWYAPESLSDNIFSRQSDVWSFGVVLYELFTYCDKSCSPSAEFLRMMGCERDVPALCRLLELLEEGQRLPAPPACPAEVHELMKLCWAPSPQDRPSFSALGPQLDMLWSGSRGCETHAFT
TYK2, sequence (P29597 871-1187): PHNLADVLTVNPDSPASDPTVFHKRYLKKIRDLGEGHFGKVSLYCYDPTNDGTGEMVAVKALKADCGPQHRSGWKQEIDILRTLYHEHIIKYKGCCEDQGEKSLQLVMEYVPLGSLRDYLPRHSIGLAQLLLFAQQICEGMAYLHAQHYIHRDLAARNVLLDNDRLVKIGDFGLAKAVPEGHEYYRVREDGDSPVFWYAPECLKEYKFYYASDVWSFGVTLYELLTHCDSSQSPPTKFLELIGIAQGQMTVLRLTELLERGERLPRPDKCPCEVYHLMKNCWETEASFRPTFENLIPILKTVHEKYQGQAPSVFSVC
JAK1, sequence (P23458 850-1154): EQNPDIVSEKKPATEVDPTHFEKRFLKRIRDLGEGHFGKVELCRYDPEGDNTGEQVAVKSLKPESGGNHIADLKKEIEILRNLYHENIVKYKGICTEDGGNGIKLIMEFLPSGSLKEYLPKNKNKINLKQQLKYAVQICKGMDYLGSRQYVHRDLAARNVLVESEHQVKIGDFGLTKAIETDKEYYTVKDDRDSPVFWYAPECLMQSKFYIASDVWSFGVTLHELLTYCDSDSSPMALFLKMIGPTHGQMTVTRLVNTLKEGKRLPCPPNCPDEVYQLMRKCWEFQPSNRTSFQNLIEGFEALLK

For orientation: EC50 means the concentration giving half of the maximal effect. The low end stands for a more potent agent, the high end for a less potent agent. For `CC[C@@]12CN(c3ncnc4[nH]ccc34)CC[C@@H]1CCN(S(N)(=O)=O)C2` (relative stereo) [Example 17, (4aR*,8aS*)-8a-ethyl-7-(7H-pyrrolo[2,3-d]pyrimidin-4-yl)-3,4,4a,5,6,8-hexahydro-1H-2,7-naphthyridine-2-sulfonamide], the concentration for a half-maximal effect (EC50) in series [1] amounted to 7 nM; in series [2], 45 nM; in series [3], 2 nM; in series [4] it was 3 nM. Besides, the CLint scaled at 0.5 μM in series [5] was 197 mL/min/kg.

Take `CC[C@]12CN(c3nnc(Br)s3)CC[C@H]1CCN(c1ncnc3[nH]ccc13)C2` (relative stereo) [Example 20, 2-[(4aR*,8aS*)-8a-ethyl-7-(7H-pyrrolo[2,3-d]pyrimidin-4-yl)-3,4,4a,5,6,8-hexahydro-1H-2,7-naphthyridin-2-yl]-5-bromo-1,3,4-thiadiazole]: the EC50 in series [1] came out at 17 nM; in series [2], 269 nM; in series [3], 4 nM; in series [4], 5 nM. Moreover, in series [5], the CLint scaled at 0.5 μM came out at 200 mL/min/kg.

As to `CC[C@]12CN(C#N)CC[C@H]1CCN(c1ncnc3[nH]ccc13)C2` (relative stereo) [Example 23, (4aR*,8aS*)-8a-ethyl-7-(7H-pyrrolo[2,3-d]pyrimidin-4-yl)-3,4,4a,5,6,8-hexahydro-1H-2,7-naphthyridine-2-carbonitrile], the concentration giving a half-maximal response (EC50) turned out to be 4 nM in series [1], 11 nM in series [2], 2 nM in series [3] and 14 nM in series [4]. Further, the “Human liver microsome Clapp (apparent intrinsic clearance)” value in series [5] came out at 200 mL/min/kg.

For the compound `CC12CN(c3ccc(C#N)cn3)C[C@H]1CCN(c1ncnc3[nH]ccc13)C2` (stereo in doubt) [Example 33, 6-[(3aS,7aS)-3a-methyl-5-(7H-pyrrolo[2,3-d]pyrimidin-4-yl)-1,3,4,6,7,7a-hexahydropyrrolo[3,4-c]pyridin-2-yl]pyridine-3-carbonitrile], the EC50 in series [1] came out at 5 nM; in series [2], 59 nM; in series [3], 1 nM; in series [4], 8 nM. Besides, in series [5], the CLint scaled at 0.5 μM was found to be 166 mL/min/kg.

`CC12CN(c3ccc(C#N)cn3)C[C@@H]1CCN(c1ncnc3[nH]ccc13)C2` (stereo in doubt) [Example 34, 6-[(3aR,7aR)-3a-methyl-5-(7H-pyrrolo[2,3-d]pyrimidin-4-yl)-1,3,4,6,7,7a-hexahydropyrrolo[3,4-c]pyridin-2-yl]pyridine-3-carbonitrile]: the EC50 worked out at 927 nM in series [1], 7010 nM in series [2], 192 nM in series [3] and 1170 nM in series [4]. In series [5], the CLint scaled at 0.5 μM is 136 mL/min/kg.

Turning to `C[C@]12CN(C#N)CC[C@H]1CCN(c1ncnc3[nH]ccc13)C2` [Example 1, (4aR,8aS)-8a-methyl-7-(7H-pyrrolo[2,3-d]pyrimidin-4-yl)-3,4,4a,5,6,8-hexahydro-1H-2,7-naphthyridine-2-carbonitrile], the EC50 in series [1] is 4 nM; in series [2], 13 nM; in series [3] it was 1 nM; in series [4], 15 nM. Moreover, in series [5], the CLint scaled at 0.5 μM stood at 54 mL/min/kg.

In the case of `C[C@@]12CN(C#N)CC[C@@H]1CCN(c1ncnc3[nH]ccc13)C2` [Example 3, (4aS,8aR)-8a-methyl-7-(7H-pyrrolo[2,3-d]pyrimidin-4-yl)-3,4,4a,5,6,8-hexahydro-1H-2,7-naphthyridine-2-carbonitrile], the 50% effective concentration (EC50) in series [1] came to 428 nM; in series [2], 1480 nM; in series [3], 237 nM; in series [4], 924 nM. In addition, the CLint scaled at 0.5 μM in series [5] stood at 60 mL/min/kg.

Turning to `CC[C@@]12CN(c3ncnc4[nH]ccc34)CC[C@@H]1CCN(S(N)(=O)=O)C2` [Example 18, (4aR,8aS)-8a-ethyl-7-(7H-pyrrolo[2,3-d]pyrimidin-4-yl)-3,4,4a,5,6,8-hexahydro-1H-2,7-naphthyridine-2-sulfonamide], the EC50 turned out to be 3 nM in series [1], 17 nM in series [2], 2 nM in series [3] and 2 nM in series [4]. Moreover, the “Human liver microsome Clapp (apparent intrinsic clearance)” value in series [5] is reported as 127 mL/min/kg.

In the case of `CC[C@]12CN(C#N)CC[C@H]1CCN(c1ncnc3[nH]ccc13)C2` [Example 22, (4aR,8aS)-8a-ethyl-7-(7H-pyrrolo[2,3-d]pyrimidin-4-yl)-3,4,4a,5,6,8-hexahydro-1H-2,7-naphthyridine-2-carbonitrile], the half-maximal effective concentration (EC50) in series [1] was 2 nM; in series [2] it was 6 nM; in series [3] it was 1 nM; in series [4], 6 nM. Further, in series [5], the CLint scaled at 0.5 μM came to 185 mL/min/kg.

With `C[C@]12CN(C#N)C[C@H]1CCN(c1ncnc3[nH]ccc13)C2` [Example 29, (3aS,7aS)-3a-methyl-5-(7H-pyrrolo[2,3-d]pyrimidin-4-yl)-1,3,4,6,7,7a-hexahydropyrrolo[3,4-c]pyridine-2-carbonitrile], the 50% effective concentration (EC50) is 35 nM in series [1], 123 nM in series [2], 10 nM in series [3] and 118 nM in series [4]. Also, the CLint scaled at 0.5 μM in series [5] was 10 mL/min/kg.
